Changes are numbered by the printed parent chain. Each block holds one molecule with its values, some of them ahead of it.
What was measured:
[1] = target: T1, constitutively active mutant human 5HT2C receptor AP-1 (Homo sapiens, UniProt P28335, S310K); test: [35S]GTPγS binding assay, AP-1 membranes; type: biochemical; details: 30 μM mianserin, 293T cells, Wallac scintistrips
T1 construct: expressed in transfected cells
T1 sequence (P28335 33-458 S310K): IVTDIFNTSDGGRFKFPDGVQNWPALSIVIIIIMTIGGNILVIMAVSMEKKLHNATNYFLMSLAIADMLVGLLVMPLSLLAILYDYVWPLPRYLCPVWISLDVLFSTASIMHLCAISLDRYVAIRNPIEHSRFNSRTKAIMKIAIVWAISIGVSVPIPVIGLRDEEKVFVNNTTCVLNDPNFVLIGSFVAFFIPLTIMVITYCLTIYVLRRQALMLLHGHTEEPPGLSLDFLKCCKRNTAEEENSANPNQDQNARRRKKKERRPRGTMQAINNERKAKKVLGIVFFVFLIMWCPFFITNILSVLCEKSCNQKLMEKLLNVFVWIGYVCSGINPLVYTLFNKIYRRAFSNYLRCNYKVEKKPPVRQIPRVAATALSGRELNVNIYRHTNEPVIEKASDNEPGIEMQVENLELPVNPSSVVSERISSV

[2] = target: T2, endogenous human 5-HT2C receptor (Homo sapiens, UniProt P28335)
T2 sequence (P28335 33-458): T1 sequence (P28335 33-458 S310K) with K278S

[3] = system: 5HT2A receptors (cerebral cortex); test: I125-LSD displacement from brain sections, cortex (autoradiography); type: binding, Sprague-Dawley rats; details: 1 micromolar compound, 1 nanomolar I125-LSD, 30 minutes, room temperature
[4] = system: Adult male Sprague-Dawley rats; test: Amphetamine-stimulated locomotor activity; type: in vivo
Text: A 5HT2A receptor antagonist or inverse agonist is expected to decrease amphetamine-stimulated locomotion without affecting baseline locomotion. See, for example, Soresnon, et al, 266(2) J. Pharmacol. Exp. Ther. 684 (1993). […] For the following study, the following parameters and protocol were utilized:
Adult male Sprague-Dawley rats were utilized for these studies. Animals were housed in groups of 2-3 in hanging plastic cages with food and water available at all times. Animals were weighed and handled for at least one day prior to surgery and throughout the studies. For these studies, Vehicle consisted of 90% ethanol (100%) and 10% water.
A San Diego Instruments Flex Field apparatus was used to quantify baseline and amphetamine-stimulated locomotor activity. This apparatus consists of four 16"×16" clear plastic open fields. Photocell arrays (16 in each dimension) interfaced with a personal computer to automatically quantify activity. Several measures of activity can be assessed with the apparatus, including total photocell beam breaks. Animals (vehicle control and Compound treated) were injected s.c. 30 minutes prior to initiation of analysis. Following this 30 minute period, animals were placed individually into an open field and baseline activity was assessed for 30 minutes (habituation phase). […]

[5] = system: human mutated 5HT2A receptor, AP-3; test: Receptor-mediated inositol phosphate (IP3) accumulation, AP-3; type: cell-based; details: statement in words

inhibition of serotonin-stimulated [35S]GTPγS binding, AP-1 (FIG. 10) [1]: inhibition
inhibition of serotonin-stimulated [35S]GTPγS binding (FIG. 9) ([2]; 30 μM mianserin, COS cells): completely inhibited
inhibition of serotonin-stimulated [35S]GTPγS binding (FIG. 10) ([2]; endogenous human 5-HT2C per text): inhibits this response
Compound: CN1CCN2c3ccccc3Cc3ccccc3C2C1 (centres unmarked) [mianserin]
inhibition of basal constitutive [35S]GTPγS binding (FIG. 10) ([2]; no agonist, endogenous human 5-HT2C per text): acts as a partial inverse agonist by inhibiting the basal constitutive binding of [^35 S]GTPγS

Compound: COc1ccc(OC(=O)Nc2cccc(-c3nn(C)cc3Br)c2)cc1 [Compound 116100, N-[3-(4-bromo-1-methylpyrazol-3-yl)phenyl][4-methoxyphenoxy]carboxamide]
displacement of I125-LSD from cortex (5HT2A) [3]: appears to selectively displace the I^125 -LSD from the cortex (5HT2A)

Compound: Cn1cc(Br)c(-c2cccc(NC(=O)c3cccs3)c2)n1 [Compound 116102, N-[3-(4-bromo-1-methylpyrazol-3-yl)phenyl][2-thienyl]carboxamide]
amphetamine-stimulated locomotion (photobeam breaks) ([4]; 116102 s.c. 0.1, 1.0, 5.0 mg/kg, d-amphetamine sulfate 1.0 mg/kg): a decrease in the amphetamine-stimulated locomotion
dose-response pattern of locomotor activity ([4]; 116102 s.c. 0.1-10 mg/kg, FIGS. 17A-C): a general "inverted U" shaped pattern was observed
inverse agonist activity at the human 5HT2A receptor [5]: potent inverse agonist

Source: US6140509A (priority 1999, dated 2000)
